These results are taken from patent US5124332A, “Substituted indoles as central nervous system agents” (Warner-Lambert Company, priority 1991, dated 1992).

The target in assay [1] is T1, [^3 H]-spiroperidol binding (Homo sapiens, UniProt P14416).
T1 construct: from tissue; own knowledge of the cited 1985 method, which predates the cloning of D2)
The assay can be described thus: Inhibition of [^3 H]-spiroperidol binding in a receptor assay. As to the method: (§1) The compounds of Formula I are valuable dopaminergic agents. […] Thus, the compounds of Formula I were tested for their ability to inhibit locomotor activity in mice according to the assay described by J. R. McLean, et al, Pharmacology, Biochemistry and Behavior, Volume 8, pages 97-99 (1978); and for their ability to inhibit [^3 H]-spiroperidol binding in a receptor assay described by D. Grigoriadis and P. Seman, Journal of Neurochemistry, Volume 44, pages 1925-1935 (1985). The above test methods are incorporated herein by reference. The data in the table show the dopaminergic activity of representative compounds of Formula I.

The subject of assay [2] is locomotor activity in mice. The assay can be described thus: Inhibition of locomotor activity in mice. It is filed as in vivo. The settings on record: Mus musculus, read-out: Inhibition of Locomotor Activity in Mice ED50. As to the method: as §1
Where [3] appears, read: [^3 H]spiroperidol, receptor assay, read-out: Inhibition of [^3 H]Spiroperidol Binding IC50.

SMILES strings stand for the structures. Structures can show the parent of a compound that is named as a salt. Where two headings read alike, the source gives them in different places.

T1 sequence (P14416 whole entry): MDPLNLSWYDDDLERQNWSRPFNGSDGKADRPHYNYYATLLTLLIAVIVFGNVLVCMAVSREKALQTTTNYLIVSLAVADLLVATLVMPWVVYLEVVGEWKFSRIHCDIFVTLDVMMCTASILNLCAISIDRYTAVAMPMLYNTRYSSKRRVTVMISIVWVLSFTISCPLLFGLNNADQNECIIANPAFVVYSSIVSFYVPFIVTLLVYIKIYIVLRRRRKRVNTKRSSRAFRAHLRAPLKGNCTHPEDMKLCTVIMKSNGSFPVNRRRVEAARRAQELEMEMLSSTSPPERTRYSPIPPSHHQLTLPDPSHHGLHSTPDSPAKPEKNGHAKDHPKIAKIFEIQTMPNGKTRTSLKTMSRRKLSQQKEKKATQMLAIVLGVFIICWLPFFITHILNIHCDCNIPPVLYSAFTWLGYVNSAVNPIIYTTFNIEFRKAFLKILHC

Usually IC50 stands for the concentration that inhibits the measured activity by half. In general, ED50 refers to the dose that gives a 50% effect, or the effect in half of the subjects. For the compound `c1ccc(N2CCN(CC[C@H]3CC[C@H](c4c[nH]c5ccccc54)CC3)CC2)nc1` [Example 1, trans 3-[4-[2-[4-(2-pyridinyl)-1-piperazinyl]ethyl]cyclohexyl]-1H-indole], the IC50 in assay [1] (setting [3]) was determined as 69.8 nM. The ED50 in assay [2] (mice, IP) worked out at 1.4 mg/kg.

With `c1ccc(N2CCN(CC[C@H]3CC[C@@H](c4c[nH]c5ccccc54)CC3)CC2)nc1` [Example 2, Cis 3-[4-[2-[4-(2-pyridinyl)-1-piperazinyl]ethyl]cyclohexyl]-1H-indole], the IC50 in assay [1] (setting [3]) was determined as 193 nM. The ED50 in assay [2] (mice, IP) came out at 4.7 mg/kg.

As for `c1cnc(N2CCN(CC[C@H]3CC[C@H](c4c[nH]c5ccccc54)CC3)CC2)nc1` [Example 3, Trans 3-[4-[2-[4-(2-pyrimidinyl)-1-piperazinyl]ethyl]cyclohexyl]-1H-indole,hydrochloride], in assay [1] (setting [3]), the IC50 was 224 nM. The ED50 in assay [2] (mice, IP) was 3.3 mg/kg.

Take `c1cnc(N2CCN(CC[C@H]3CC[C@@H](c4c[nH]c5ccccc54)CC3)CC2)nc1` [Example 4, Cis 3-[4-[2-[4-(2-pyrimidinyl)-1-piperazinyl]ethyl]cyclohexyl]-1H-indole, hydrochloride]: the IC50 in assay [1] (setting [3]) came to 349 nM. Also, the ED50 in assay [2] (mice, IP) turned out to be 8.6 mg/kg.

Turning to `C1=C(c2ccccc2)CCN(CC[C@H]2CC[C@H](c3c[nH]c4ccccc43)CC2)C1` [Example 5, Trans 3-[4-[2-(3,6-dihydro-4-phenyl-1(2H)-pyridinyl)ethyl]cyclohexyl]-1H-indole], the IC50 in assay [1] worked out at 12.1 nM. For the same compound, the ED50 in assay [2] (ip) worked out at 9 mg/kg.

For the compound `C1=C(c2ccccc2)CCN(CC[C@H]2CC[C@@H](c3c[nH]c4ccccc43)CC2)C1` [Example 6, Cis 3-[4-[2-(3,6-dihydro-4-phenyl-1(2H)-pyridinyl)ethyl]cyclohexyl]-1H-indole], the IC50 in assay [1] came to 39.3 nM. In addition, the 50% effective dose (ED50) in assay [2] (ip) was 16.6 mg/kg.

In the case of `C1=C(c2cccs2)CCN(CC[C@H]2CC[C@H](c3c[nH]c4ccccc43)CC2)C1` [Example 7, Trans 3-[4-[2-(3,6-dihydro-4-(2-thienyl)-1(2H)-pyridinyl)ethyl]cyclohexyl]-1H-indole], in assay [1] (setting [3]), the IC50 was 878 nM. The ED50 in assay [2] (ip) is 11.7 mg/kg.

`C1=C(c2c[nH]c3ccccc23)CCC(CCN2CCN(c3ccccn3)CC2)C1` (stereo not shown) [Example 16]: the IC50 in assay [1] (setting [3]) came out at 270 nM. Moreover, the ED50 in assay [2] (mice, IP) worked out at 6.25 mg/kg.
